Measurements taken from patent US5366980A, “Use of dextromethorphan and an oxidase inhibitor to treat dermatitis” (priority 1993, dated 1994).
Values joined by “and” are separate entries in the source; they are usually repeats but may differ in a detail not shown here. Equal entries are not always repeated. Where two headings read alike, the source gives them in different places.

What was measured:
debrisoquin hydroxylase [1] = assay: Urinary DM/DR ratio after oral dextromethorphan without and with quinidine (Example 1); type: in vivo, human; settings: ALS patients
Procedure: Since the research that led to this invention was done by a neurologist who was initially interested in finding out whether DM might be able to retard the progress of ALS, the initial studies were done on patients suffering from ALS, most of whom are adults more than 50 years old.
Six patients suffering from ALS were administered orally a single 60 mg dextromethorphan dose. Several hours later, a urine sample was collected, and the urine concentrations of dextromethorphan (DM) and dextrorphan (DR) were measured as described below to determine a DM/DR ratio. […] In a different week, 60 mg of DM and 150 mg of quinidine were orally administered to the same patients, and urinary DM and DR levels and DM/DR ratios were determined again.
DM and DR urinary levels without quinidine were determined by adding […] of thebaine as an internal standard to 1 mL of urine. To this was added 2000 units of beta-glucuronidase in 1 mL of acetate buffer (0.1M, pH 5.0). The mixture was incubated for 18 hours at 37° C. and then extracted by adding 1 mL of phosphate buffer (pH 12, 0.10M) and 7 mL of n-butanol/hexane (10:90 v/v). After mixing and centrifugation, the organic layer was transferred to a clean tube and acidified with 400 uL of 0.01 N HCL. 20 microliters (uL) of aqueous phase was injected into a high performance liquid chromatography (HPLC) system. The HPLC used a phenyl column equilibrated with a mobile phase of acetonitrile:water (51:49, v/v) containing 10 mM KHPO4, 10 mM hexane sulfonic acid, pH 4.0 (flow rate 1.2 mL/min). Detection of thebaine, dextromethorphan and dextrorphan was achieved by fluorescence (Kratos FS-980 Fluorometer) with an excitation wavelength of 228 nm and no emission cutoff filter.
A gas chromatograph/mass spectroscopy (gc/ms) assay was employed for determining dextromethorphan and dextrorphan levels in the presence of quinidine. Briefly, 0.5 ml urine samples were spiked with 500 nanograms (ng) of dimethacrine. The urine pH was adjusted to 5.0 with 0.1M acetate buffer (usually about 1.0 ml), and beta-glucuronidase was added (2000 units/ml urine). […]

[2] = Plasma concentration of DM 10-12 hours after oral dosing, without and with quinidine (Examples 2 and 3); type: in vivo, human; settings: 10-12 hours, one value per patient
Procedure: Plasma Concentrations of DM
Five patients were orally administered 120 mg of DM, with no co-administration of quinidine. Between 10 and 12 hours later, blood was sampled, blood plasma was isolated by centrifugation, and the plasma was analyzed to determine the DM concentration using the thebaine/HPLC method.
During a different week, the same patients were orally administered 60 mg of DM (half the control dosage) and 150 mg of quinidine. Between 10 and 12 hours later, blood was sampled and the plasma was analyzed for DM using thebaine/HPLC.
Additional studies were undertaken using a range of dosages of DM to establish a dose-response curve that correlates the quantity of DM orally administered to a patient with blood plasma concentrations 10 to 12 hours later (determined as described in Example 2). All patients received 150 mg of quinidine daily. The results of those studies are shown in graphical form in FIG. 2, with mean values shown as open squares and standard deviation ranges shown by vertical bars. The ascending line through the median values is a linear approximation; a curve based on more extensive data would probably show a horizontal asymptote.

dermatitis = assay: Suppression of dermatitis (lichen planus; severe intermittent dermatitis) in patients; type: in vivo, human; settings: patients treated with DM alone
From the text: Suppression of Dermatitis
During an initial examination, the Applicant discovered that patient two, a Caucasion person who was suffering from ALS, suffered from a severe dermatologic condition involving lesions which appear in relatively small purplish patches ("polygonal papules"). Their condition had recently been diagnosed as lichen planus. The etiology is unknown, although a variety of drugs reportedly can aggravate this condition. The patient reported that the lesions were severely itchy, and they had been suffering from it for roughly ten years. They had been prescribed a number of drugs (including various steroids such as prednisone) in an effort to control the itching; the most recent prescription was "Doxepin," a tricyclic antidepressant. None of those agents offered much relief.
The patient began an initial treatment of quinidine alone (150 mg/day) for a week.
The specialist carried out a preliminary test involving DM and quinidine on a person who suffered from severe but intermittent dermatitis.

ALS patients [3] = assay: Tolerance and side effects in ALS patients and control subjects; type: in vivo, human; settings: ALS patients and controls; drug(s) as labelled
From the text: (§1) All patients who became involved in the study initially received DM and/or quinidine alone, to ensure that these drugs would not adversely affect them. The drugs were coadministered only after a tolerance and/or dosage range for one drug had been established for a patient.
However, quinidine is not pharmaceutically acceptable by all patients.

emotional lability = assay: Suppression of emotional lability in ALS patients; type: in vivo, human
From the text: Emotional lability is a complex problem in which patients suffering from neurological damage (typically due to a stroke or head injury or a neurologic disease such as ALS or Alzheimer's disease) become unable to control spasmodic emotional outbursts such as explosive laughing or uncontrollable weeping. This discovery involving emotional lability is discussed in U.S. Pat. No. 5,206,248, which was also invented by the Applicant; the contents of that patent are incorporated by reference.
as §1

ALS = assay: Effect on progress of ALS; type: in vivo, human; settings: loss of strength, slurring of speech, other muscular symptoms
From the text: As mentioned above, DM is being studied as a possible treatment for neurodegenerative diseases such as Parkinson's disease, Alzheimer's disease, and ALS. Accordingly, the Applicant, a neurologist who specializes in working with ALS patients, undertook a study of DM to determine whether it might be able to retard the progress of ALS.
However, during the course of that study, other important findings emerged, as discussed below.

sigma receptors = settings: reportedly; cited from earlier work
[4] = test system: N-methyl-D-aspartate (NMDA) receptors; settings: reportedly; cited from earlier work
[5] = test system: neuronal calcium channels; settings: reportedly, Carpenter et al 1988, cited from earlier work
[6] = most people; cited from earlier work
ALS patients [7] = settings: DM up to about 300 mg/day or higher; quinidine in prolonged QT interval; cited from earlier work
debrisoquin hydroxylase [8] = assay: Urinary DM/DR ratio with other antioxidants in specific patients (Example 5); settings: urine, HPLC; preliminary; one value per patient
From the text: The second method involves sampling body fluids to compare the concentrations of DM and its primary metabolite, dextrorphan (DR). Although blood concentrations can be directly evaluated by drawing blood samples if desired, an easier and painless approach is to analyze urine samples. Blood or urine samples can be processed using methods such as high performance liquid chromatography (HPLC), as described in Example 5. […] The height of each peak, or the area under each peak, will indicate the quantity of each compound in the blood or urine sample. The heights of the DM and DR peaks are then divided, to determine the DM/DR ratio. The ratio which occurs after administration of a candidate antioxidant drug is compared to the DM/DR ratio in the same patient under control conditions (i.e., before administration of any antioxidant).
Preliminary Analysis of Other Antioxidants
To further evaluate that possibility, the Applicant arranged for chemical analyses of urine samples, using HPLC, in the labs of an independent investigator.

For COc1ccc2c(c1)[C@@]13CCCC[C@H]1[C@@H](C2)N(C)CC3 [DM, (+)-3-methoxy-N-methylmorphinan], the “Metabolism of DM in ALS patients vs healthy adults” value (debrisoquin hydroxylase [1]) was “No difference in the metabolism”, the “DM plasma level, with quinidine” value ([2]; 60 mg DM once oral + quinidine 150 mg) was 33 ng/mL and 29.7 ng/mL and 29.0 ng/mL and 28.8 ng/mL and 45.6 ng/mL and the “DM plasma level, no quinidine” value ([2]; 120 mg/day DM oral, quinidine dose 0) was 9.3 ng/mL and 16.5 ng/mL and 6.05 ng/mL. The “Therapeutic benefits (emotional lability and dermatitis)” value (dermatitis) was “not detectable”, the Adverse side effects (ALS patients [3]) was “no ill effects” and the “Reduction of emotional lability symptoms” value (emotional lability) was “not observed in any patients who received DM alone”. For the same compound, the “Slowing of progressive ALS symptoms” value (ALS) was “not able to slow down the progressive loss of strength, slurring of speech, and other muscular symptoms”, the “Activity at sigma receptors” value (sigma receptors) was “sigma agonists” and the “Activity at NMDA receptors” value [4] was “NMDA antagonists”. For the same compound, the “Activity at neuronal calcium channels” value ([5]; listed as Dextromethorphan) was “suppress neural activity mediated by neuronal calcium channels”, the “Activity at neuronal calcium channels” value ([5]; listed as dextromethorphan) was “calcium channel antagonists” and the “Disappearance from the bloodstream” value [6] was “disappears fairly rapidly from the bloodstream”. For the same compound, the “Adverse effects (general knowledge)” value (ALS patients [7]) was “any adverse effects (such as dizziness or nausea) usually disappear quickly when the dosage is lowered” and the “DM/DR ratio, no antioxidant” value (debrisoquin hydroxylase [8]) was 0.02 and 0.00 and 0.06 and 0.03.
